Assay results from ChEMBL document CHEMBL4385672, “Design, synthesis and biological evaluation of 2-(3,4-dimethoxyphenyl)-6 (1,2,3,6-tetrahydropyridin-4-yl)imidazo[1,2-a]pyridine analogues as antiproliferative agents” (Bioorg Med Chem Lett, 2019).
Calls of active or inactive are those of the source. The calls are words filed in the database; no cut-off is given here.

Columns and labels:
B16-F10 [1] = experiment: Antiproliferative activity against mouse B16F10 cells at 10 to 100 uM incubated for 48 hrs by MTT assay; assay type: functional, cell-based
HeLa [2] = experiment: Antiproliferative activity against human HeLa cells at 10 to 100 uM incubated for 48 hrs by MTT assay; assay type: functional, cell-based
A549 [3] = experiment: Antiproliferative activity against human A549 cells at 10 to 100 uM incubated for 48 hrs by MTT assay; assay type: functional, cell-based
B16-F10 [4] = experiment: Antiproliferative activity against mouse B16F10 cells incubated for 48 hrs by MTT assay; assay type: functional, cell-based; conditions: B16-F10, 48 h
[5] = Selectivity index, ratio of IC50 for cytotoxicity in HEK293 cells assessed as reduction in cell viability incubated for 48 hrs by MTT assay to IC50 for antiproliferative activity against mouse B16F10 cells incubated for 48 hrs by MTT assay; assay type: toxicity, cell-based; conditions: read-out: Ratio IC50
[6] = Selectivity index, ratio of IC50 for cytotoxicity in HEK293 cells assessed as reduction in cell viability incubated for 48 hrs by MTT assay to IC50 for antiproliferative activity against human A549 cells incubated for 48 hrs by MTT assay; assay type: toxicity, cell-based; conditions: read-out: Ratio IC50
HEK293 = experiment: Cytotoxicity in HEK293 cells assessed as reduction in cel viability incubated for 48 hrs by MTT assay; assay type: cell-based; conditions: Homo sapiens, HEK293, 48 h
A549 [7] = experiment: Antiproliferative activity against human A549 cells incubated for 48 hrs by MTT assay; assay type: functional, cell-based; conditions: A549, 48 h
HeLa [8] = experiment: Antiproliferative activity against human HeLa cells incubated for 48 hrs by MTT assay; assay type: functional, cell-based
[9] = Selectivity index, ratio of IC50 for cytotoxicity in HEK293 cells assessed as reduction in cell viability incubated for 48 hrs by MTT assay to IC50 for antiproliferative activity against human HeLa cells incubated for 48 hrs by MTT assay; assay type: toxicity, cell-based; conditions: read-out: Ratio IC50

Structure (SMILES) | Activity (B16-F10 [1]) | Activity (HeLa [2]) | Activity (A549 [3]) | IC50 (B16-F10 [4]) | selectivity ratio at 48 h [5] | selectivity ratio at 48 h [6] | IC50 (HEK293) | IC50 (A549 [7]) | IC50 (HeLa [8]) | selectivity ratio at 48 h [9]
COc1ccc(-c2cn3cc(C4=CCN(S(=O)(=O)c5ccc(C)cc5)CC4)ccc3n2)cc1OC | Active | Active | Active | – | – | – | – | – | – | –
COc1ccc(-c2cn3cc(C4=CCN(S(=O)(=O)CC(C)C)CC4)ccc3n2)cc1OC | Active | Active | Active | – | – | – | – | – | – | –
COc1ccc(-c2cn3cc(C4=CCN(S(=O)(=O)c5ccc(Br)cc5)CC4)ccc3n2)cc1OC | Active | Active | Active | – | – | – | – | – | – | –
COc1ccc(-c2cn3cc(C4=CCN(C(C)=O)CC4)ccc3n2)cc1OC | Active | Active | Active | – | – | – | – | – | – | –
COc1ccc(-c2cn3cc(C4=CCN(C(=O)c5cccs5)CC4)ccc3n2)cc1OC | Active | Active | Active | 19.5 µM | 10 to 14 | 10 to 14 | 98.1 µM | 5.2 µM | 16 µM | 10 to 14
COc1ccc(-c2cn3cc(C4=CCN(C(=O)c5ccccn5)CC4)ccc3n2)cc1OC | Active | Active | Active | – | – | – | – | – | – | –
COc1ccc(-c2cn3cc(C4=CCNCC4)ccc3n2)cc1OC | Active | Active | Active | – | – | – | – | – | – | –
COc1ccc(-c2cn3cc(C4=CCN(C(=O)c5ccccc5F)CC4)ccc3n2)cc1OC | Active | Active | Active | – | – | – | – | – | – | –
COc1ccc(-c2cn3cc(C4=CCN(S(=O)(=O)c5ccccc5[N+](=O)[O-])CC4)ccc3n2)cc1OC | Active | Active | Active | – | – | – | – | – | – | –
COc1ccc(-c2cn3cc(C4=CCN(C(=O)c5ccc(F)cc5)CC4)ccc3n2)cc1OC | Active | Active | Active | – | – | – | – | – | – | –
COc1ccc(-c2cn3cc(C4=CCN(C(=O)COCc5ccccc5)CC4)ccc3n2)cc1OC | Active | Active | Active | – | – | – | – | – | – | –
COc1ccc(-c2cn3cc(C4=CCN(S(=O)(=O)C(F)(F)F)CC4)ccc3n2)cc1OC | Active | Active | Active | – | – | – | – | – | – | –
COc1ccc(S(=O)(=O)N2CC=C(c3ccc4nc(-c5ccc(OC)c(OC)c5)cn4c3)CC2)cc1 | Active | Active | Active | – | – | – | – | – | – | –
COc1ccc(-c2cn3cc(C4=CCN(S(=O)(=O)c5ccc([N+](=O)[O-])cc5)CC4)ccc3n2)cc1OC | Active | Active | Active | – | – | – | – | – | – | –
COc1ccc(-c2cn3cc(C4=CCN(S(=O)(=O)c5ccccc5)CC4)ccc3n2)cc1OC | Active | Active | Active | 13.2 µM | 10 to 14 | 10 to 14 | 65.6 µM | 7.66 µM | 12.6 µM | 10 to 14
COc1ccc(-c2cn3cc(C4=CCN(S(=O)(=O)C5CC5)CC4)ccc3n2)cc1OC | Active | Active | Active | – | – | – | – | – | – | –
C=CC(=O)N1CC=C(c2ccc3nc(-c4ccc(OC)c(OC)c4)cn3c2)CC1 | Active | Active | Active | – | – | – | – | – | – | –
COc1ccc(-c2cn3cc(C4=CCN(C(=O)N(C)C)CC4)ccc3n2)cc1OC | Active | Active | Active | – | – | – | – | – | – | –

Structure (SMILES) | Activity (B16-F10 [1]) | Activity (HeLa [2]) | Activity (A549 [3]) | IC50 (B16-F10 [4]) | selectivity ratio at 48 h [5] | selectivity ratio at 48 h [6] | IC50 (HEK293) | IC50 (A549 [7]) | IC50 (HeLa [8]) | selectivity ratio at 48 h [9]
COc1ccc(-c2cn3cc(C4=CCN(C(=O)C5CCCCC5)CC4)ccc3n2)cc1OC | Active | Active | Active | 10.9 µM | 10 to 14 | 10 to 14 | 72.1 µM | 7.31 µM | 8.06 µM | 10 to 14
COc1ccc(-c2cn3cc(C4=CCN(S(=O)(=O)c5ccc(Cl)s5)CC4)ccc3n2)cc1OC | Active | Active | Active | – | – | – | – | – | – | –
COc1ccc(-c2cn3cc(C4=CCN(C(=O)C5CC5)CC4)ccc3n2)cc1OC | Active | Active | Active | 19.4 µM | 10 to 14 | 10 to 14 | 77.5 µM | 9.14 µM | 15.8 µM | 10 to 14
COc1ccc(-c2cn3cc(C4=CCN(S(=O)(=O)c5ccc(F)cc5)CC4)ccc3n2)cc1OC | Active | Active | Active | – | – | – | – | – | – | –
CCS(=O)(=O)N1CC=C(c2ccc3nc(-c4ccc(OC)c(OC)c4)cn3c2)CC1 | Active | Active | Active | – | – | – | – | – | – | –
COc1ccc(-c2cn3cc(C4=CCN(S(=O)(=O)C5CCCCC5)CC4)ccc3n2)cc1OC | Active | Active | Active | 11.1 µM | 10 to 14 | 10 to 14 | 75 µM | 4.49 µM | 9.99 µM | 10 to 14
Nc1ccccc1NC(=O)c1cnccn1 | – | – | – | 34.6 µM | – | – | – | 29.1 µM | 28.3 µM | –
COc1ccc(-c2cn3cc(C4=CCN(S(=O)(=O)c5ccc(C(C)=O)cc5)CC4)ccc3n2)cc1OC | Active | Active | Active | – | – | – | – | – | – | –
COc1ccc(-c2cn3cc(C4=CCN(S(=O)(=O)c5ccc(Cl)cc5)CC4)ccc3n2)cc1OC | Active | Active | Active | – | – | – | – | – | – | –
COc1ccc(-c2cn3cc(C4=CCN(C(=O)C(F)(F)F)CC4)ccc3n2)cc1OC | Active | Active | Active | – | – | – | – | – | – | –
CCCS(=O)(=O)N1CC=C(c2ccc3nc(-c4ccc(OC)c(OC)c4)cn3c2)CC1 | Active | Active | Active | – | – | – | – | – | – | –
COc1ccc(-c2cn3cc(C4=CCN(C(=O)c5ccc(F)cc5F)CC4)ccc3n2)cc1OC | Active | Active | Active | – | – | – | – | – | – | –
COc1ccc(-c2cn3cc(C4=CCN(C(=O)c5cccc(F)c5)CC4)ccc3n2)cc1OC | Active | Active | Active | – | – | – | – | – | – | –
COc1ccc(-c2cn3cc(C4=CCN(C(=O)c5cocn5)CC4)ccc3n2)cc1OC | Active | Active | Active | – | – | – | – | – | – | –
COc1ccc(-c2cn3cc(C4=CCN(C(=O)c5ccco5)CC4)ccc3n2)cc1OC | Active | Active | Active | – | – | – | – | – | – | –
COc1ccc(-c2cn3cc(C4=CCN(S(=O)(=O)c5ccc(C(C)(C)C)cc5)CC4)ccc3n2)cc1OC | Active | Active | Active | – | – | – | – | – | – | –
COc1ccc(-c2cn3cc(C4=CCN(S(=O)(=O)c5ccc(C(F)(F)F)cc5)CC4)ccc3n2)cc1OC | Active | Active | Active | – | – | – | – | – | – | –
COc1ccc(-c2cn3cc(C4=CCN(S(=O)(=O)c5ccc(Br)s5)CC4)ccc3n2)cc1OC | Active | Active | Active | – | – | – | – | – | – | –
